{"source": "patent US6057117A", "about": "“Identification and use of selective inhibitors of glycogen synthase kinase 3” (Chiron Corporation, priority 1999, dated 2000)", "assay_type_in_all_cases": "cell-based", "key": {"HepG2 liver cells [1]": {"system": "HepG2 liver cells", "assay": "Insulin- and glucose-stimulated glycogen synthase activity in stable tissue culture cells", "conditions": "insulin and glucose added, in the presence of the inhibitor", "description": "(§1) In these assays measurement of the effectiveness of a given inhibitor is accomplished by the effect of inhibitors on glycogen synthase activity as described in Thomas et al, Anal. Biochem. 25:486-99 (1968), glucose uptake as described in Begun and Ragolia Endocrinology 137: 2441-6 (1996), Claraldi et al, J. Clin. Invest. 96:2820-27 (1995), Hara et al, PNAS 91:7415-19 (1994), Robinson and James, Am. J. Physiol. 263:E383-93(1992), and Sasoaka et al, JBC 270: 10885-92 (1995) and glucose incorporation into glycogen as described in Begun and Ragolia Endocrinology 137: 2441-6 (1996), Sasoaka et al, JBC 270: 10885-92 (1995), and Takata et al, JBC 267:9065-70 (1992).\n(§2) Assays for glucose uptake and glycogen synthesis can be conducted as described for cell-based assays generally. To measure glucose uptake and glycogen synthesis, a variety of stable tissue culture cell lines that respond to insulin stimulation by increasing the synthesis of glycogen and increasing the rate of glucose uptake from the medium can be used. These include HepG2 liver cells, CHO-IR cells, and Hirc cells. Under appropriate conditions the addition of insulin and glucose to HepG2 cells stimulates glycogen synthase activity and this stimulation is potentiated in the presence of the GSK3 inhibitor iodotubercidin."}, "HepG2 liver cells [2]": {"system": "HepG2 liver cells", "assay": "Glucose uptake in stable tissue culture cells", "description": "as §1, §2"}, "Drosophila cells": {"system": "Drosophila cells", "assay": "β-catenin stabilization assay of intracellular GSK3 activity (western blot)", "conditions": "added to Drosophila cells; detected on a western blot", "description": "Other assays that test functional GSK3 also provide a further test of intracellular GSK3 activity. These assays rely on the ability to observe indirect consequences of GSK3 activity within cells. An example of such an assay involves β-catenin stabilization. Cellular GSK3 activity leads to the destabilization of cytosolic pools of β-catenin in certain types of cell. Consequently, inhibition of GSK3 results in β-catenin stabilization and accumulation, which can be detected on a western blot. […] Similarly, LiCl in the cell culture medium causes an increase in intracellular β-catenin levels as described in Stambolic et al, Cur. Biol. 6(12):1664-8 (1996)."}}}
{"smiles": "Nc1ncnc2c1c(I)cn2[C@@H]1O[C@H](CO)[C@@H](O)[C@H]1O", "note": "[iodotubercidin]", "values": [{"measurement": "stimulation of glycogen synthase activity by insulin and glucose", "setting": "HepG2 liver cells [1]", "value": "potentiated"}, {"measurement": "response of glucose uptake to insulin, glucose and inhibitor", "setting": "HepG2 liver cells [2]", "value": "as much as six fold"}, {"measurement": "β-catenin accumulation", "setting": "Drosophila cells", "value": "leads to β-catenin accumulation"}]}
